22 compounds from patent publication EP0510036B1, “2-SUBSTITUTED 4,5-DIPHENYL-IMIDAZOLES” (RHONE-POULENC RORER S.A., priority 1990, dated 1991) can be followed below.

Assay [1] has as its system acyl coenzyme-A:cholesterol-O-acyl transferase (ACAT; EC 2.3.1.26). In words: ACAT inhibition in rat liver microsomes incubated with radiolabelled oleoyl-CoA. The format is biochemical. To be noted: liver microsomes of rats fed 0.5%w/w cholesterol and 0.25%w/w cholic acid for 7 days; for In-vitro % Inhibition at 1»g/ml: compound at 1»g/ml; for In-vitro % Inhibition at 0.5»g/ml: compound at 0.5»g/ml. The procedure:
In assays performed in-vitro, microsomes, obtained from the livers of rats fed on a diet supplemented with 0.5%w/w cholesterol and 0.25%w/w cholic acid for 7 days, were incubated with radiolabelled oleoyl-CoA in the presence of compounds according to the invention at a concentration of 0.5 or 1 »g/ml.
In general terms: Liver microsomes are vesicles of endoplasmic reticulum, rich in cytochrome P450 enzymes.

Assay [2] relates to plasma cholesterol concentrations. In words: Inhibition of increases in plasma cholesterol in cholesterol-fed rats. The class given is in vivo. Conditions: diet supplemented by 0.03% w/w of test compound, measured after 3 days, relative to control animals.

SMILES strings stand for the structures.

Regarding `c1ccc(-c2nc(SCCCn3cccn3)[nH]c2-c2ccccc2)cc1` [Compound 1B, 2-[3-(pyrazol-1-yl)propylthio]-4,5-diphenylimidazole], the “In-vitro % Inhibition at 1»g/ml” value in assay [1] amounted to 83%. With `Cl.Cn1ccnc1CSc1nc(-c2ccccc2)c(-c2ccccc2)[nH]1` [Compound 1JA, 2-[(1-methylimidazol-2-yl)methylthio]-4,5-diphenylimidazole hydrochloride], the “In-vitro % Inhibition at 1»g/ml” value in assay [1] was determined as 82%. Besides, the “In-vivo % Inhibition” value in assay [2] is 23%. With `c1ccc(Cn2ccnc2CSc2nc(-c3ccccc3)c(-c3ccccc3)[nH]2)cc1` [Compound 1K, 2-[(1-benzylimidazol-2-yl)methylthio]-4,5-diphenylimidazole], the “In-vitro % Inhibition at 1»g/ml” value in assay [1] is 57%. Still for that read-out and setting: as for `c1ccc(-c2nc(SCCCn3ccnc3)[nH]c2-c2ccccc2)cc1` [Compound 1H, 2-[3-(imidazol-1-yl)propylthio]-4,5-diphenylimidazole], the figure is 80%. Same read-out and setting: then `c1ccc(-c2nc(SCCCCCCn3cncn3)[nH]c2-c2ccccc2)cc1` [Compound 1L, 2-[6-(1,2,4-triazol-1-yl)hexylthio]-4,5-diphenylimidazole], with 91%. Take `Cc1nccn1CCCSc1nc(-c2ccccc2)c(-c2ccccc2)[nH]1` [Compound 1A, 2-[3-(2-methylimidazol-1-yl)propylthio]-4,5-diphenylimidazole]: the “In-vitro % Inhibition at 1»g/ml” value in assay [1] was 90%. The “In-vivo % Inhibition” value in assay [2] was determined as 64%.

Turning to `c1ccc(-c2nc(SCCCn3cncn3)[nH]c2-c2ccccc2)cc1` [Compound 1D, 2-[3-(1,2,4-triazol-1-yl)propylthio]-4,5-diphenylimidazole], the “In-vitro % Inhibition at 1»g/ml” value in assay [1] stood at 84%. For the compound `c1ccc(-c2nc(SCCCCCn3cncn3)[nH]c2-c2ccccc2)cc1` [Compound 1F, 2-[5-(1,2,4-triazol-1-yl)pentylthio]-4,5-diphenylimidazole], the “In-vitro % Inhibition at 1»g/ml” value in assay [1] came out at 92%. Further, the “In-vivo % Inhibition” value in assay [2] is 74%. Regarding `Cc1cc(C)n(CCCSc2nc(-c3ccccc3)c(-c3ccccc3)[nH]2)n1` [Compound 1P, 2-[3-(3,5-dimethylpyrazol-1-yl)propylthio]-4,5-diphenylimidazole], in assay [1], the “In-vitro % Inhibition at 0.5»g/ml” value stood at 87%.

Turning to `c1ccc(-c2nc(SCCn3ccnc3)[nH]c2-c2ccccc2)cc1` [Compound 1G], the “In-vitro % Inhibition at 1»g/ml” value in assay [1] is on record as 86%. For `c1ccc(-c2nc(SCCCn3ccnc3-c3ccccc3)[nH]c2-c2ccccc2)cc1` [Compound 1N, 2-[3-(2-phenylimidazol-1-yl)propylthio]-4,5-diphenylimidazole], the “In-vitro % Inhibition at 0.5»g/ml” value in assay [1] is 57%. For `c1ccc(-c2nc(SCCCCn3ncnn3)[nH]c2-c2ccccc2)cc1` [Compound 1T, 2-[4-(tetrazol-2-yl)butylthio]-4,5-diphenylimidazole], the “In-vitro % Inhibition at 0.5»g/ml” value in assay [1] amounted to 74%. Take `Cc1nccn1CCCCSc1nc(-c2ccccc2)c(-c2ccccc2)[nH]1` [Compound 1M, 2-[4-(2-methylimidazol-1-yl)butylthio]-4,5-diphenylimidazole]: the “In-vitro % Inhibition at 0.5»g/ml” value in assay [1] turned out to be 87%. For the same compound, in assay [2], the “In-vivo % Inhibition” value was 26%.

As to `c1ccc(-c2nc(SCCn3cncn3)[nH]c2-c2ccccc2)cc1` [Compound 1C, 2-[2-(1,2,4-triazol-1-yl)ethylthio]-4,5-diphenylimidazole], the “In-vitro % Inhibition at 1»g/ml” value in assay [1] was 88%. With `c1ccc(-c2nc(SCCCn3cnnn3)[nH]c2-c2ccccc2)cc1` [Compound 1Q, 2-[3-(tetrazol-1-yl)propylthio]-4,5-diphenylimidazole], the “In-vitro % Inhibition at 1»g/ml” value in assay [1] came out at 88%. Take `CC(Sc1nc(-c2ccccc2)c(-c2ccccc2)[nH]1)n1ccnc1` (racemic) [Compound 1I, (±)-2-[1-(imidazol-1-yl)ethylthio]-4,5-diphenylimidazole]: the “In-vitro % Inhibition at 1»g/ml” value in assay [1] is 53%.

Turning to `c1ccc(-c2nc(SCCCn3ncnn3)[nH]c2-c2ccccc2)cc1` [Compound 1R, 2-[3-(tetrazol-2-yl)propylthio]-4,5-diphenylimidazole], in assay [1], the “In-vitro % Inhibition at 1»g/ml” value turned out to be 80%. In the case of `c1ccc(-c2nc(SCCCCn3cncn3)[nH]c2-c2ccccc2)cc1` [Compound 1E, 2-[4-(1,2,4-triazol-1-yl)butylthio]-4,5-diphenylimidazole], in assay [1], the “In-vitro % Inhibition at 1»g/ml” value is given as 86%. Further, the “In-vivo % Inhibition” value in assay [2] stood at 53%.

As to `Cc1ncc([N+](=O)[O-])n1CCSc1nc(-c2ccccc2)c(-c2ccccc2)[nH]1` [Compound 1O, 2-[2-(2-methyl-5-nitroimidazol-1-yl)ethylthio]-4,5-diphenylimidazole], in assay [1], the “In-vitro % Inhibition at 0.5»g/ml” value was found to be 82%. As for `Cn1ccnc1CSc1nc(-c2ccccc2)c(-c2ccccc2)[nH]1` [Compound 1J, 2-[(1-methylimidazol-2-yl)methylthio]-4,5-diphenylimidazole], in assay [1], the “In-vitro % Inhibition at 1»g/ml” value stood at 85%. Consider `c1ccc(-c2nc(SCCCCn3cnnn3)[nH]c2-c2ccccc2)cc1` [Compound 1S, 2-[4-(tetrazol-1-yl)butylthio]-4,5-diphenylimidazole], for which the “In-vitro % Inhibition at 0.5»g/ml” value in assay [1] is recorded as 84%. Further, in assay [2], the “In-vivo % Inhibition” value is 41%. `c1ccc(-c2nc(SCc3ccncc3)[nH]c2-c2ccccc2)cc1` [Compound 1U, 2-[pyrid-4-ylmethylthio]-4,5-diphenylimidazole]: in assay [1], the “In-vitro % Inhibition at 1»g/ml” value was 71%.
